Laboratory results published in US6562316B1, “Drug delivery system with two-step targeting” (priority 1997, dated 2003).

Settings: PEG-stabilized DSPC/Chol/PEG(2000)-DSPE liposome formulation (40 mg/ml total lipid, 12 mg/ml WSA1); buffer and serum; 48h incubation at 37° C.
Procedure: The liposomes are loaded by use of citric acid pH-gradient. Liposomes are prepared in 500 mM citrate buffer with pH 4.0 The external medium is titrated to pH 7.7 with sodium carbonate. WSA is thereafter added and allowed to load for 20 minutes at 60° C. The final formulation contains 40 mg/ml of total lipid and 12 mg/ml of WSA1 which corresponds to about 1×10^5 WSA, or 1×10^6 10 B, per liposome.

1,8-diamino-4-N-3- [12-(N-9-acridinyl-3-aminopropyl)-p-carborane-1-yl] propyl-4-azooctane hydrogen chloride [WSA1]
encapsulated WSA 1 released: less than 15%
